For test [1], the target named is Lysine-specific histone demethylase 1A (Homo sapiens, UniProt O60341).
Description: Inhibition of LSD1 (unknown origin) incubated for 90 mins by fluorescence based assay
Test [2] relates to MCF7. Description: cells. To be noted: Homo sapiens, MCF7, 72 h.
Description: Antiproliferative activity against human MCF7 cells assessed as reduction in cell viability after 72 hrs by MTT assay
Test [3] has as its system MCF7. Description: Induction of apoptosis in human MCF7 cells assessed as early apoptotic cells at 5 uM incubated for 24 hrs by AnnexinV-FITC and propidium iodide staining based flow cytometry analysis (reference value: 3.08 %). It is filed as functional.
The test system of test [4] is MCF7. Description: Induction of apoptosis in human MCF7 cells assessed as viable cells at 5 uM incubated for 24 hrs by AnnexinV-FITC and propidium iodide staining based flow cytometry analysis (reference value: 87.12 %). It is filed as functional. As to conditions: read-out: Activity. (Flow cytometry measures light scatter and fluorescence of single cells or particles in a stream.)

Test [5] concerns MCF7. Description: Induction of apoptosis in human MCF7 cells assessed as necrotic cells at 5 uM incubated for 24 hrs by AnnexinV-FITC and propidium iodide staining based flow cytometry analysis (reference value: 2.35 %). It is filed as functional.
Test [6] deals with MCF7. Description: Induction of apoptosis in human MCF7 cells assessed as late apoptotic cells at 5 uM incubated for 24 hrs by AnnexinV-FITC and propidium iodide staining based flow cytometry analysis (reference value: 7.15 %). It is filed as functional.
Test [7] concerns MCF7. Description: Induction of apoptosis in human MCF7 cells assessed as viable cells at 10 uM incubated for 24 hrs by AnnexinV-FITC and propidium iodide staining based flow cytometry analysis (reference value: 87.12 %). It is filed as functional. To be noted: read-out: Activity.
Test [8] has as its system MCF7. Description: Induction of apoptosis in human MCF7 cells assessed as late apoptotic cells at 10 uM incubated for 24 hrs by AnnexinV-FITC and propidium iodide staining based flow cytometry analysis (reference value: 7.15 %). It is filed as functional.
Test [9] concerns MCF7. Description: Induction of apoptosis in human MCF7 cells assessed as early apoptotic cells at 10 uM incubated for 24 hrs by AnnexinV-FITC and propidium iodide staining based flow cytometry analysis (reference value: 3.08 %). It is filed as functional.
Test [10] concerns MCF7. Description: Induction of apoptosis in human MCF7 cells assessed as necrotic cells at 30 uM incubated for 24 hrs by AnnexinV-FITC and propidium iodide staining based flow cytometry analysis (reference value: 2.35 %). It is filed as functional.
Test [11] has as its system MCF7. Description: Induction of apoptosis in human MCF7 cells assessed as early apoptotic cells at 30 uM incubated for 24 hrs by AnnexinV-FITC and propidium iodide staining based flow cytometry analysis (reference value: 3.08 %). It is filed as functional.
For test [12], the system named is MCF7. Description: Induction of apoptosis in human MCF7 cells assessed as late apoptotic cells at 30 uM incubated for 24 hrs by AnnexinV-FITC and propidium iodide staining based flow cytometry analysis (reference value: 7.15 %). It is filed as functional.
Test [13] deals with MCF7. Description: Induction of apoptosis in human MCF7 cells assessed as necrotic cells at 10 uM incubated for 24 hrs by AnnexinV-FITC and propidium iodide staining based flow cytometry analysis (reference value: 2.35 %). It is filed as functional.
Test [14] relates to MCF7. Description: Induction of apoptosis in human MCF7 cells assessed as viable cells at 30 uM incubated for 24 hrs by AnnexinV-FITC and propidium iodide staining based flow cytometry analysis (reference value: 87.12 %). It is filed as functional. To be noted: read-out: Activity.

As a reminder, the IC50 is the concentration that inhibits the measured activity by half. For the molecule `O=S(=O)(Oc1cncc(Br)c1)C1CC2OC1C(c1ccc(O)cc1)=C2c1ccc(O)cc1` (stereo unspecified), the half-maximal inhibitory concentration (IC50) is over 50 µM in test [1] and 16.4 µM in the test on MCF7 [2].

Regarding `O=S(=O)(Oc1cncc(F)c1)C1CC2OC1C(c1ccc(O)cc1)=C2c1ccc(O)cc1` (stereo unspecified), the IC50 in test [1] worked out at 18.3 µM; in the test with MCF7 [2], 13.8 µM.

`O=S(=O)(Oc1cccc(Cl)n1)C1CC2OC1C(c1ccc(O)cc1)=C2c1ccc(O)cc1` (stereo unspecified): the IC50 was determined as 4.08 µM in [1] and 10.2 µM with MCF7 [2].

`CCOC(=O)c1ccc(NS(=O)(=O)C2CC3OC2C(c2ccc(O)cc2)=C3c2ccc(O)cc2)cc1` (stereo unspecified): the results for the IC50 (in test [1]; in the test with MCF7 [2]) were over 50 µM and 18.8 µM, respectively.

With `O=S(=O)(Oc1cccnc1Cl)C1CC2OC1C(c1ccc(O)cc1)=C2c1ccc(O)cc1` (stereo unspecified), the IC50 in test [1] worked out at 7.13 µM; with MCF7 [2] it was 30.2 µM.

For `Cc1cccc(NC(=O)C2CC3OC2C(c2ccc(O)cc2)=C3c2ccc(O)cc2)n1` (stereo unspecified), the IC50 in test [1] was over 50 µM; in the test with MCF7 [2], 26.2 µM.

Take `O=C(Oc1cccnc1Br)C1CC2OC1C(c1ccc(O)cc1)=C2c1ccc(O)cc1` (stereo unspecified): the IC50 in test [1] was over 50 µM; in the test with MCF7 [2], 84 µM.

Consider `COC(=O)c1ccccc1NS(=O)(=O)C1CC2OC1C(c1ccc(O)cc1)=C2c1ccc(O)cc1` (stereo unspecified), for which the IC50 is 30 µM in [1] and 30.5 µM in the test on MCF7 [2].

For `COC(=O)c1ccc(NS(=O)(=O)C2CC3OC2C(c2ccc(O)cc2)=C3c2ccc(O)cc2)cc1` (stereo unspecified), the figures for the IC50 (in test [1]; in the test with MCF7 [2]) were 13.2 µM and 15.1 µM, respectively.

Take `O=C(NC1CC1)C1CC2OC1C(c1ccc(O)cc1)=C2c1ccc(O)cc1` (stereo unspecified): the figures for the IC50 (in [1]; in the test with MCF7 [2]) were over 50 µM and over 100 µM, respectively.

With `O=S(=O)(Oc1cccc(Br)n1)C1CC2OC1C(c1ccc(O)cc1)=C2c1ccc(O)cc1` (stereo unspecified), the values for the IC50 (in test [1]; in the test with MCF7 [2]) were 5.92 µM and 7.9 µM, respectively.

Consider `O=S(=O)(Oc1cccc2cccnc12)C1CC2OC1C(c1ccc(O)cc1)=C2c1ccc(O)cc1` (stereo unspecified), for which the IC50 in test [1] is over 50 µM; in the test with MCF7 [2], 16.7 µM.

Consider `O=C(Oc1cccnc1Cl)C1CC2OC1C(c1ccc(O)cc1)=C2c1ccc(O)cc1` (stereo unspecified), for which the values for the IC50 (in [1]; in the test on MCF7 [2]) were 17.4 µM and 38.2 µM, respectively.

Turning to `O=S(=O)(Oc1cncc(Cl)c1)C1CC2OC1C(c1ccc(O)cc1)=C2c1ccc(O)cc1` (stereo unspecified), the IC50 in [1] is over 50 µM; with MCF7 [2] it was 49.4 µM.

Consider `Cc1cccc(NC(=O)C2CC3OC2C(c2ccc(O)cc2)=C3c2ccc(O)cc2)c1` (stereo unspecified), for which the values for the IC50 (in [1]; with MCF7 [2]) were over 50 µM and 44.5 µM, respectively.

On to `O=S(=O)(Oc1ccc2ccccc2c1)C1CC2OC1C(c1ccc(O)cc1)=C2c1ccc(O)cc1` (stereo unspecified), for which the IC50 stood at 15.1 µM in [1] and 4.11 µM in the test with MCF7 [2].

In the case of `Cc1cc(=O)oc2cc(OS(=O)(=O)C3CC4OC3C(c3ccc(O)cc3)=C4c3ccc(O)cc3)ccc12` (stereo unspecified), the IC50 in test [1] came to 13.7 µM; in the test on MCF7 [2] it was 38.3 µM.

In the case of `O=S(=O)(Oc1ccc(-c2ccccc2)cc1)C1CC2OC1C(c1ccc(O)cc1)=C2c1ccc(O)cc1` (stereo unspecified), the half-maximal inhibitory concentration (IC50) in [1] was over 50 µM; with MCF7 [2], 4.1 µM.

For the molecule `O=S(=O)(Oc1cccnc1Br)C1CC2OC1C(c1ccc(O)cc1)=C2c1ccc(O)cc1` (stereo unspecified), the figures for the IC50 (in test [1]; in the test on MCF7 [2]) were 12.3 µM and 7.84 µM, respectively.

With `O=C(NCc1ccc2c(c1)OCO2)C1CC2OC1C(c1ccc(O)cc1)=C2c1ccc(O)cc1` (stereo unspecified), the results for the IC50 (in test [1]; in the test on MCF7 [2]) were over 50 µM and 35.2 µM, respectively.

`O=S(=O)(Oc1cccc(F)n1)C1CC2OC1C(c1ccc(O)cc1)=C2c1ccc(O)cc1` (stereo unspecified): the Activity was 4.62% with MCF7 [3]; 2.08% in the test on MCF7 [5]; 8.57% with MCF7 [6]; 11.03% in the test on MCF7 [8]; 7.1% in the test with MCF7 [9]; 5.79% in the test with MCF7 [10]. Moreover, the Activity in the test with MCF7 [11] was 13.74%; in the test on MCF7 [12], 23.57%; in the test with MCF7 [13], 2.21%. Besides, in the test on MCF7 [4], the viability at 5 µM amounted to 84.7%. In addition, in the test on MCF7 [7], the viability at 10 µM amounted to 79.7%. The IC50 was found to be 1.55 µM in [1] and 8.79 µM in the test on MCF7 [2]. The viability at 30 µM in the test with MCF7 [14] is 56.9%.

As for `O=S(=O)(Oc1cccc2ccccc12)C1CC2OC1C(c1ccc(O)cc1)=C2c1ccc(O)cc1` (stereo unspecified), the IC50 was over 50 µM in test [1] and 37.7 µM in the test with MCF7 [2].

In the case of `O=c1cc(C(F)(F)F)c2ccc(OS(=O)(=O)C3CC4OC3C(c3ccc(O)cc3)=C4c3ccc(O)cc3)cc2o1` (stereo unspecified), the IC50 is over 50 µM in [1] and 12.5 µM in the test with MCF7 [2].

`O=S(=O)(Oc1ccccc1)C1CC2OC1C(c1ccc(O)cc1)=C2c1ccc(O)cc1` (stereo unspecified): the IC50 in test [1] is over 50 µM; in the test on MCF7 [2] it was 28.7 µM.

`CC/C(=C(\c1ccc(O)cc1)c1ccc(OCCN(C)C)cc1)c1ccccc1` [AFIMOXIFENE] returned an IC50 in test [1] of over 50 µM.

Values taken from ChEMBL document CHEMBL4765290, “Design, synthesis and biological evaluation of novel dual-acting modulators targeting both estrogen receptor α (ERα) and lysine-specific demethylase 1 (LSD1) for treatment of breast cancer” (Eur J Med Chem, 2020).
